What was measured:
[1] = target: T1, human S1P4 (Homo sapiens, UniProt O95977); assay: B arrestin recruitment assay, Tango EDG6-bla U2OS cells; type: cell-based; details: B arrestin, 18 hours agonist incubation
T1 construct: host or cells: U2OS (Tango EDG6-bla)
T1 sequence (O95977 1-384): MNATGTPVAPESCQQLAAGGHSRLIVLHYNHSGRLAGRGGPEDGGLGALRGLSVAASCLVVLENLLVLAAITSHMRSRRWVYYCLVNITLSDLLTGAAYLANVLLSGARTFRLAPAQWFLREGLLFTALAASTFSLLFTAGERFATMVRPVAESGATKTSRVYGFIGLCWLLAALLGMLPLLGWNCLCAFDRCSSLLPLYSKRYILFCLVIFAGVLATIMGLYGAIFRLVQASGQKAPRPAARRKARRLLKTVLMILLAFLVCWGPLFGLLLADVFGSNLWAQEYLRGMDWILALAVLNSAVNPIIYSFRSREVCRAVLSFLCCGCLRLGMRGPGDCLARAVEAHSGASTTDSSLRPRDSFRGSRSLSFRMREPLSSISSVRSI
Protocol: Tango™ EDG1-bla U2OS cells (Human S1P1), Tango™ EDG3-bla U2OS cells (human S1P3), Tango™ EDG6-bla U2OS cells (human S1P4) and Tango™ EDG8-bla U2OS cells (human S1P5) cell lines were cultured and assayed according to manufacturers instructions with one modification; agonists incubated on the cells for 18 hours prior to addition of the GenBlazer substrate. Final DMSO concentration in the assay is 1%.

[2] = Plasma concentrations during escalating i.v. infusion in anesthetized rats; type: in vivo; details: anesthetized rat, FTY720 i.v.
Protocol: The cardiovascular effects of FTY720 and BAF312 were tested in anesthetized rats (180–200 g). In brief, male Sprague Dawley rats (Charles River) were anesthetized with Inactin (110 mg/kg i.p.) and a tracheotomy performed. The femoral artery and veins were catheterized for measurement of mean arterial pressure and heart rate, collection of blood samples at 20-min intervals (0.2 mL/sample), and for compound infusion/hydration as previously described, [24]; blood samples were also withdrawn in vehicle-treated control rats. FTY720, infused as a hydrochloride salt (0.1, 0.3, 1.0 mg/kg/20-min free base equivalent solubilized in a 100% PEG-400 vehicle), or BAF312 (0.5, 1.5, 5.0 mg/kg/20-min solubilized in a 100% PEG-400 vehicle) were administered via three escalating 20-min infusions (0.011 mL/min) followed by a 1-hr post-treatment period. A blood sample was withdrawn at 20, 40, 60, and 120-minutes for analysis of plasma concentrations of the parent compound, and in the case of FTY720, also the phosphorylated metabolite, (S)-FTY720-P. Statistical significance (p<0.05) was based on a t-test comparing treatment change from baseline (baseline was defined as the period from −30 to 0 minutes) vs. vehicle controls change from baseline at each timepoint without adjustment for multiple comparisons. In a separate group of anesthetized rats in which left ventricular (LV) contractility was also recorded with a Millar pressure transducer introduced into the left ventricle, BAF312 was infused in the same dosing regimen as the studies described above (0.5, 1.5, 5.0 mg/kg/20-min solubilized in a 100% PEG-400 vehicle) and effects on LV dP/dtmax were recorded.

[3] = Plasma concentrations in repeat-dosing study, satellite rats; type: in vivo, rat; details: for Plasma concentration: rat, mean±SEM; for Plasma concentration at Tmax / Terminal plasma concentration at Tmax: satellite rats; for Plasma concentration at Tmax: day 1; for Terminal plasma concentration at Tmax: last day of study
Protocol: Mean arterial pressure was assessed in conscious, freely moving male Sprague Dawley rats (n = 6–8/group; Charles River) instrumented with telemetry transmitters (DSI-Ponemah) and housed in metabolism cages as previously described, [26]. Tested compounds were solubilized in a 0.5% Methylcellulose/0.015% Tween 80 vehicle that was also dosed alone (p.o./QD, 5 mL/kg) as a control in the study. FTY720 was administered p.o. at 0.3, 1.0, 3.0, 10.0 mg/kg p.o. as a single dose or p.o./QD at 0.5, 1.5, and 5.0 mg/kg in a chronic study. BAF312 was administered p.o/QD at 0.3, 3.0, and 30 mg/kg as a single dose and in a chronic study. Mean arterial pressure and heart rate are shown as 1-hr and/or 24-hr mean values±SEM as described in the results. Blood samples in satellite rats were withdrawn at various timepoints as described in the results for analysis of plasma concentrations of the parent compound and, in the case of FTY720, also the phosphorylated metabolite, (S)-FTY720-P. Statistical analysis for the single-dose acute studies was based on one-way ANOVA to compare the treatment groups vs. vehicle for each time period after dosing (0–24 hrs, 24–48 hrs, and 48–72 hrs); statistical significance (p<0.05) was detected by Dunnett’s post-hoc test to compare treatment with vehicle controls. The statistical analysis in the chronic studies were based on one-way ANOVA with repeated measures to compare the treatment arms; statistical significance (p<0.05) was detected by Dunnett’s post-hoc test to compare treatment with vehicle controls.

[4] = Heart tissue concentrations at the end of the repeat-dosing study; type: in vivo; details: rat
Protocol: In the repeat-dosing study with FTY720 (0.5, 1.5, and 5.0 mg/kg/d), plasma concentrations were also determined ( Table 3 ).

CCCCCCCCc1ccc(CC[C@](N)(CO)COP(=O)(O)O)cc1 [FTY720-P]
EC50 [1]: 26 nM
Plasma concentration ([2]; end of 0.1 mg/kg/20 min infusion, listed as phosphorylated FTY720, 0.1 mg/kg): 285 ± 87 nM
Plasma concentration ([2]; end of 0.3 mg/kg/20 min infusion, listed as phosphorylated FTY720, 0.3 mg/kg): 683 ± 214 nM
Plasma concentration ([2]; end of 1.0 mg/kg/20 min infusion, listed as phosphorylated FTY720, 1 mg/kg): 908 ± 264 nM
Plasma concentration ([2]; end of 60-min post-treatment period, listed as phosphorylated FTY720): 211 ± 17 nM
Plasma concentration ([3]; FTY720 0.5 mg/kg/d p.o., Day 1, 4 hr post-dose): 46 ± 5 nM
Plasma concentration ([3]; FTY720 0.5 mg/kg/d p.o., Day 1, 8 hr post-dose): 103 ± 24 nM
Plasma concentration ([3]; FTY720 0.5 mg/kg/d p.o., Day 1, 24 hr post-dose): 65 ± 23 nM
Plasma concentration ([3]; FTY720 0.5 mg/kg/d p.o., Terminal (last day), 0-hr): 141 ± 31 nM
Plasma concentration ([3]; FTY720 0.5 mg/kg/d p.o., Terminal (last day), 4 hr post-dose): 229 ± 40 nM
Plasma concentration ([3]; FTY720 0.5 mg/kg/d p.o., Terminal (last day), 8 hr post-dose): 478 ± 303 nM
Plasma concentration ([3]; FTY720 0.5 mg/kg/d p.o., Terminal (last day), 24 hr post-dose): 546 ± 359 nM
Plasma concentration ([3]; FTY720 1.5 mg/kg/d p.o., Day 1, 4 hr post-dose): 231 ± 1 nM
Plasma concentration ([3]; FTY720 1.5 mg/kg/d p.o., Day 1, 8 hr post-dose): 275 ± 55 nM
Plasma concentration ([3]; FTY720 1.5 mg/kg/d p.o., Day 1, 24 hr post-dose): 264 ± 79 nM
Plasma concentration ([3]; FTY720 1.5 mg/kg/d p.o., Terminal (last day), 0-hr): 690 ± 136 nM
Plasma concentration ([3]; FTY720 1.5 mg/kg/d p.o., Terminal (last day), 4 hr post-dose): 800 ± 77 nM
Plasma concentration ([3]; FTY720 1.5 mg/kg/d p.o., Terminal (last day), 8 hr post-dose): 647 ± 121 nM
Plasma concentration ([3]; FTY720 1.5 mg/kg/d p.o., Terminal (last day), 24 hr post-dose): 560 ± 70 nM
Plasma concentration ([3]; FTY720 5.0 mg/kg/d p.o., Day 1, 4 hr post-dose): 506 ± 74 nM
Plasma concentration ([3]; FTY720 5.0 mg/kg/d p.o., Day 1, 8 hr post-dose): 696 ± 279 nM
Plasma concentration ([3]; FTY720 5.0 mg/kg/d p.o., Day 1, 24 hr post-dose): 773 ± 55 nM
Plasma concentration ([3]; FTY720 5.0 mg/kg/d p.o., Terminal (last day), 0-hr): 2344 ± 356 nM
Plasma concentration ([3]; FTY720 5.0 mg/kg/d p.o., Terminal (last day), 4 hr post-dose): 2913 ± 238 nM
Plasma concentration ([3]; FTY720 5.0 mg/kg/d p.o., Terminal (last day), 8 hr post-dose): 1508 ± 316 nM
Plasma concentration ([3]; FTY720 5.0 mg/kg/d p.o., Terminal (last day), 24 hr post-dose): 1561 ± 230 nM
Plasma concentration at Tmax ([3]; FTY720 0.5 mg/kg/d p.o.): 103 ± 24 nM
Terminal plasma concentration at Tmax ([3]; FTY720 0.5 mg/kg/d p.o.): 546 ± 358 nM
Plasma concentration at Tmax ([3]; FTY720 1.5 mg/kg/d p.o.): 275 ± 55 nM
Terminal plasma concentration at Tmax ([3]; FTY720 1.5 mg/kg/d p.o.): 800 ± 77 nM
Plasma concentration at Tmax ([3]; FTY720 5.0 mg/kg/d p.o.): 773 ± 55 nM
Terminal plasma concentration at Tmax ([3]; FTY720 5.0 mg/kg/d p.o.): 2913 ± 92 nM
mean tissue concentration in heart ([4]; FTY720 0.5 mg/kg/d p.o.): 513 ng/g
mean tissue concentration in heart ([4]; FTY720 1.5 mg/kg/d p.o.): 757 ng/g
mean tissue concentration in heart ([4]; FTY720 5.0 mg/kg/d p.o.): 3799 ng/g
